Measurements taken from patent publication US20250084092A1, “ANNULATED PYRIDAZINE COMPOUND” (Nico Therapeutics, Inc., priority 2021, published 2025).
Counter-ions that a name gives are not always drawn.

Legend:
[1] = tested on: TNF-α production in THP-1 cells; test: TNF-α production inhibition test; type: cell-based; settings: Homo sapiens; PMA-treated THP-1 cells, LPS 50 ng/mL, 2 hours, TNF-α in supernatant by ELISA
Method: PMA (phorbol myristate acetate, SIGMA, P1585) was added to THP-1 cells in an amount of 50 ng/mL to culture the cells for 2 days at 37° C. The culture medium was replaced with a serum-free RPMI-1640 medium, and a compound with a known concentration was added thereto to culture the cells at 37° C. for 15 minutes. LPS (Lipopolysaccharide SIMGA, L2880) was added so that each final concentration becomes 50 ng/mL, followed by culturing at 37° C. for 2 hours. The supernatants were collected to measure the concentration of TNF-α by ELISA (DuoSet ELISA human TNF-α, R&D Systems, DY210). The TNF-α concentrations were plotted against log concentrations of test compounds, and an IC50 value was calculated by sigmoid Emax model nonlinear regression analysis.

NLRP3 inflammasome = molecular target: T1, NLRP3 inflammasome (Homo sapiens, UniProt Q96P20); test: THP-1 IL-1β production inhibition test; type: cell-based; settings: PMA-treated THP-1 cells, LPS 50 ng/mL + ATP 5 mM, 2 hours, IL-1β in supernatant by ELISA
T1 construct: endogenous in cells; host or cells: THP-1 cells (PMA-differentiated, stimulated with LPS and ATP)
T1 sequence (Q96P20 whole entry): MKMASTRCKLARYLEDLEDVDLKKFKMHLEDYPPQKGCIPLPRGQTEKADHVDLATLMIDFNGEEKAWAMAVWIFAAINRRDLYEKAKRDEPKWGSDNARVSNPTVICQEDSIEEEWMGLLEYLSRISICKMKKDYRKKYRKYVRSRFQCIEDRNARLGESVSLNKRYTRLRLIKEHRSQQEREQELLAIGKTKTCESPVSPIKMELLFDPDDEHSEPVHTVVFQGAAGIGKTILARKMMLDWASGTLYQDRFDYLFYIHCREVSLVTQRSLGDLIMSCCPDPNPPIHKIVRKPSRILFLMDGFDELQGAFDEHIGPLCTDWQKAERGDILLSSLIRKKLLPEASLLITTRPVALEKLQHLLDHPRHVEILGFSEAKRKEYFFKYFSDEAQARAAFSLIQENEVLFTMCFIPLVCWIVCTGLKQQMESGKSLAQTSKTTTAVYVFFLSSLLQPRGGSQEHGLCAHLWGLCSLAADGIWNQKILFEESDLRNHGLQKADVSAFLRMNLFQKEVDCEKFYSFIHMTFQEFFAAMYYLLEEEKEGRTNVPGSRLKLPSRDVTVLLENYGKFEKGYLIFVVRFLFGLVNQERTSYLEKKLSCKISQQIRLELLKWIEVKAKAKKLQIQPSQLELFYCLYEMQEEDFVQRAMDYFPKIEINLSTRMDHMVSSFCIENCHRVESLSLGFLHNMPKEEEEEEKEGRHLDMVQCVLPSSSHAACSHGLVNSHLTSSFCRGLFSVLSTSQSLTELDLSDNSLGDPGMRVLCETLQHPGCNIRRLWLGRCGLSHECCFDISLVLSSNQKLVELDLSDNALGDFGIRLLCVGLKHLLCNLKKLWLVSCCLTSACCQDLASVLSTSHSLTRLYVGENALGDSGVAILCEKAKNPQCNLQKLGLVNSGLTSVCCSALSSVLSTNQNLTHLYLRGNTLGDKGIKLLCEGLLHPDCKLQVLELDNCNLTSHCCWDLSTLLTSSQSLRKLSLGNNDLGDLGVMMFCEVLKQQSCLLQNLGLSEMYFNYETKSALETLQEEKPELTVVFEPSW
Method in brief: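 THP-1 cells differentiated with PMA 50 ng/mL for 2 days, then stimulated with LPS 50 ng/mL and ATP 5 mM (final) for 2 h at 37 °C. Supernatant IL-1β measured by ELISA; IC50 from sigmoid Emax nonlinear regression against log compound concentration.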

hERG channel = hERG channel (Homo sapiens, UniProt Q12809); test: Safety pharmacology test: hERG channel inhibitory effect; type: biochemical; settings: human Ether-a-go-go Related Gene channel
Chain of hERG channel (Q12809 whole entry): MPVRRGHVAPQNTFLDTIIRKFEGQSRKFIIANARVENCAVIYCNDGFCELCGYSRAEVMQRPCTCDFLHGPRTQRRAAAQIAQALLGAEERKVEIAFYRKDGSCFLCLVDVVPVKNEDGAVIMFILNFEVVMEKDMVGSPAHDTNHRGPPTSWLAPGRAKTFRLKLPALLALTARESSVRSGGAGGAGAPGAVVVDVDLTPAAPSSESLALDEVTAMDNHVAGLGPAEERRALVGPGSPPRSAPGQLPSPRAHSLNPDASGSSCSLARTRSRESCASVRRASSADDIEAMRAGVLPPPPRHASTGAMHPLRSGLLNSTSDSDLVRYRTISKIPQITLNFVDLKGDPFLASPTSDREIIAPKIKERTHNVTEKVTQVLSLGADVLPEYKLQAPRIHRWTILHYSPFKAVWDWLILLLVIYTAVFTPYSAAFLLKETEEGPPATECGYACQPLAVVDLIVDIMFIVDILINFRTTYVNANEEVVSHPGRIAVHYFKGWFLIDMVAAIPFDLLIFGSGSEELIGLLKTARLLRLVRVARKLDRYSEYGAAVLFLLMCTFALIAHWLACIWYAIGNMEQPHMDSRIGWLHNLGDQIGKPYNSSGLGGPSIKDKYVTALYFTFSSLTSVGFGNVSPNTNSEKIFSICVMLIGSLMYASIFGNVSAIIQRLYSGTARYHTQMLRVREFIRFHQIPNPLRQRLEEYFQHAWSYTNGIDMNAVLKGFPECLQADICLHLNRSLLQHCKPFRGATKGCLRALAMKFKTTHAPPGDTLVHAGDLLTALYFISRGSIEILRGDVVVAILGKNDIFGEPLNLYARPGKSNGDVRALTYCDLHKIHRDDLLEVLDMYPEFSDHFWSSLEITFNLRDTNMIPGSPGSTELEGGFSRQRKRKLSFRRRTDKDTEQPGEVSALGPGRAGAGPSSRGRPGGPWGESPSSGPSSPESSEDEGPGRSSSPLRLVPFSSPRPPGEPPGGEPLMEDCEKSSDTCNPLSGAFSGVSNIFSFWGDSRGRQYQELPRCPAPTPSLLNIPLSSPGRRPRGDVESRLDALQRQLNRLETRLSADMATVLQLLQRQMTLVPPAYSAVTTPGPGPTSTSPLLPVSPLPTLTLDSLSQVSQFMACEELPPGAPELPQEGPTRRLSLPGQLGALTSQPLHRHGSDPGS
Method: For the safety pharmacology test, evaluation of a human Ether-a-go-go Related Gene (hereinafter referred to as hERG) channel inhibitory effect was carried out. The hERG channel inhibitory effect was evaluated using a modified method described in Combinatorial Chemistry & High Throughput Screening, 12, 1, 78-95 (2009).

3T3 = test: In vitro phototoxicity test (3T3 NRU); type: cell-based; settings: In vitro 3T3 NRU Phototoxicity Test, OECD 432, ICH S10
From the text: The evaluation of in vitro phototoxicity tests was based on ICH S10: Guidelines for Evaluation of Photosafety of Drugs (Notification No. 0521-1) using a method described in OECD Guidelines for the Testing of Chemicals 432: In vitro 3T3 NRU Phototoxicity Test, 2019).

IL-1β p17 = test: Rat central nervous system IL-1β production test; type: in vivo; settings: Wistar rat, oral, cerebrospinal fluid, LPS + BzATP in cisterna magna, read-out: percent inhibition of IL-1β p17 relative to the solvent-treated group
Method: Under isoflurane anesthesia, 10 to 14 weeks-old male Wistar rats were administered with 12.5 μg/5 μL of LPS (SIGMA, L2880) in the cisterna magna, followed by an oral administration of the test compound 2 hours later. After an additional hour, 50 μg/5 μL of BzATP(2′(3′)-O-(4-benzoylbenzoyl)adenosine 5′-triphosphate triethylammonium salt, SIGMA, B6396) was administered into the cisterna magna, and cerebrospinal fluid was collected after 30 minutes. The cerebrospinal fluid was subjected to Western blotting using an anti-IL-1β antibody (Millipore, AB1832P) to quantify IL-1β p17, and the percent inhibition relative to the solvent-treated group was calculated.
The percent inhibition of IL-1β p17 for Examples 1, 2(1), 3(1) and 124, which are compounds of formula (I), relative to the solvent-treated group is shown in the following table. In the table, Dose refers to the dosage of test compounds; Ex1, Ex2(1), Ex3(1), and Ex124 refer to Example 1, Example 2(1), Example 3(1); and Example 124; and “NT” denotes the unmeasured case.

SMILES | IC50 [1] [nM] | IC50 (NLRP3 inflammasome) [nM] | IC50 (hERG channel) [nM] | phototoxic effect (3T3) | inhibition at 0.3 mg/kg (IL-1β p17) [%] | inhibition at 1 mg/kg (IL-1β p17) [%] | inhibition at 3 mg/kg (IL-1β p17) [%] | inhibition at 0.1 mg/kg (IL-1β p17; Dose 0.1 mg/kg) [%]
Oc1cc(C(F)(F)F)ccc1-c1nnc(N[C@@H]2CCCC[C@@H]2O)c2c1CCOC2 [4(1), 2-(4-{[(1R,2S)-2-hydroxycyclohexyl]amino}-7,8-dihydro-5H-pyrano[3,4-d]pyridazin-1-yl)-5-(trifluoromethyl)phenol] | ≥ 10000 | 2.5 |  |  |  |  |  | 
Oc1cc(C(F)(F)F)ccc1-c1nnc(N[C@@H]2CCCC[C@H]2O)c2c1CCCC2 [Example 1, 2-(4-{[(1R,2R)-2-hydroxycyclohexyl]amino}-5,6,7,8-tetrahydrophthalazin-1-yl)-5-(trifluoromethyl)phenol] | ≥ 10000 | 10 | ≥ 10000 | no phototoxic effect | -12 | 74 | 84 | 
Oc1cc(C(F)(F)F)ccc1-c1nnc(N[C@@H]2CCCC[C@H]2O)c2c1CCOC2 [Example 2(1), 2-(4-{[(1R,2R)-2-hydroxycyclohexyl]amino}-7,8-dihydro-5H-pyrano[3,4-d]pyridazin-1-yl)-5-(trifluoromethyl)phenol] | ≥ 10000 | 3.4 | ≥ 10000 | no phototoxic effect | 81 | 75 | 88 | 
Oc1cc(OC(F)(F)F)ccc1-c1nnc(N[C@@H]2CCCC[C@H]2O)c2c1CCOC2 [Example 3(1), 2-(4-{[(1R,2R)-2-hydroxycyclohexyl]amino}-7,8-dihydro-5H-pyrano[3,4-d]pyridazin-1-yl)-5-(trifluoromethoxy)phenol] | ≥ 10000 | 2.2 | ≥ 10000 | no phototoxic effect | 75 | 82 | 72 | 
Oc1cc(C(F)(F)F)ccc1-c1nnc(N[C@@H]2CCCC[C@H]2O)c2c1CCOCC2 [Example 5, 2-(4-{[(1R,2R)-2-hydroxycyclohexyl]amino}-5,6,8,9-tetrahydrooxepino[4,5-d]pyridazin-1-yl)-5-(trifluoromethyl)phenol] | ≥ 10000 | 4.7 |  |  |  |  |  | 
Oc1cc(Cl)ccc1-c1nnc(N[C@@H]2CCCC[C@H]2O)c2c1CCOC2 [Example 70, 5-chloro-2-(4-{[(1R,2R)-2-hydroxycyclohexyl]amino}-7,8-dihydro-5H-pyrano[3,4-d]pyridazin-1-yl)phenol] | ≥ 10000 | 2.1 |  |  |  |  |  | 
CN1CCc2c(-c3ccc(C(F)(F)F)cc3O)nnc(N[C@@H]3CCCC[C@H]3O)c2C1 [Example 73, 2-(4-{[(1R,2R)-2-hydroxycyclohexyl]amino}-6-methyl-5,6,7,8-tetrahydropyrido[3,4-d]pyridazin-1-yl)-5-(trifluoromethyl)phenol] | ≥ 10000 | 7.6 |  |  |  |  |  | 
Oc1cc(OC(F)F)ccc1-c1nnc(N[C@@H]2CCCC[C@H]2O)c2c1CCCC2 [Example 83, 5-(difluoromethoxy)-2-(4-{[(1R,2R)-2-hydroxycyclohexyl]amino}-5,6,7,8-tetrahydrophthalazin-1-yl)phenol] | ≥ 10000 | 4.8 |  |  |  |  |  | 
Oc1cc(OC(F)F)ccc1-c1nnc(N[C@@H]2CCCC[C@H]2O)c2c1CCOC2 [Example 88, 5-(difluoromethoxy)-2-(4-{[(1R,2R)-2-hydroxycyclohexyl]amino}-7,8-dihydro-5H-pyrano[3,4-d]pyridazin-1-yl)phenol] | ≥ 10000 | 1.8 |  |  |  |  |  | 
CN1Cc2c(N[C@@H]3CCCC[C@H]3O)nnc(-c3ccc(C(F)(F)F)cc3O)c2C1 [Example 99, 2-(4-{[(1R,2R)-2-hydroxycyclohexyl]amino}-6-methyl-6,7-dihydro-5H-pyrrolo[3,4-d]pyridazin-1-yl)-5-(trifluoromethyl)phenol] | ≥ 10000 | 16 |  |  |  |  |  | 
Oc1cc(C(F)(F)F)ccc1-c1nnc(N[C@@H]2CCCC[C@H]2O)c2c1CSC2 [Example 111, 2-(4-{[(1R,2R)-2-hydroxycyclohexyl]amino}-5,7-dihydrothieno[3,4-d]pyridazin-1-yl)-5-(trifluoromethyl)phenol] | ≥ 10000 | 2.9 |  |  |  |  |  | 
CN1CCC[C@@H](Nc2nnc(-c3ccc(OC(F)F)cc3O)c3c2COCC3)C1 [Example 124, 5-(difluoromethoxy)-2-(4-{[(3R)-1-methylpiperidin-3-yl]amino}-7,8-dihydro-5H-pyrano[3,4-d]pyridazin-1-yl)phenol] | ≥ 10000 | 0.62 | ≥ 10000 | no phototoxic effect | 49 | 96 |  | 55
CN1CCC[C@@H](Nc2nnc(-c3ccc(C(F)(F)F)cc3O)c3c2COCC3)C1 [Example 125] | ≥ 10000 | 1.5 |  |  |  |  |  | 
Oc1cc(OC(F)(F)F)ccc1-c1nnc(N[C@@H]2CCCC[C@H]2O)c2c1CCOC2 [Example 135, 2-(4-{[(1R,2R)-2-hydroxycyclohexyl]amino}-7,8-dihydro-5H-pyrano[3,4-d]pyridazin-1-yl)-5-(trifluoromethoxy)phenol monohydrochloride] |  | 2.9 |  |  |  |  |  | 
CN1CCC[C@@H](Nc2nnc(-c3ccc(OC(F)F)cc3O)c3c2COCC3)C1 [Example 136, 5-(difluoromethoxy)-2-(4-{[(3R)-1-methylpiperidin-3-yl]amino}-7,8-dihydro-5H-pyrano[3,4-d]pyridazin-1-yl)phenol dihydrochloride] |  | 2.2 |  |  |  |  |  | 
